Results taken from BindingDB's records for doi:10.7270/Q22R3Q30 (Nmmlsc, 2009).

Biological target: Cell division control protein 42 homolog (Homo sapiens, UniProt P60953)
Assay: Cdc42 activated mutant GTP-binding inhibitors, SAR follow-up, biochemical, bead-based multiplex flow cytometry, additional SAR set (AID 2021)

Cell division control protein 42 homolog, sequence (P60953 whole entry): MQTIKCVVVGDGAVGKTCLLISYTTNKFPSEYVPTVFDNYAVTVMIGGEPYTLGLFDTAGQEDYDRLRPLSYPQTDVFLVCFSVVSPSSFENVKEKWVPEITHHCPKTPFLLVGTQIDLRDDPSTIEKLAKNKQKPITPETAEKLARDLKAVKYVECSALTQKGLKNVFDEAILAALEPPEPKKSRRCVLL

Ki [µM]	Compound
0.81	O=C1NC(=O)/C(=C2/C(=O)Nc3ccccc32)N1
8.52	O=C1N=c2c(Br)cccc2=C1c1[nH]c2ccccc2c1NO [7-bromanyl-3-[3-(oxidanylamino)-1H-indol-2-yl]indol-2-one]
